Assay results as given in PubChem BioAssay (NCI).
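Compound exposure: 48 hours, 5 concentrations, 96-well plates. TGI marks complete inhibition of growth.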

Columns and labels:
Assay in all cases: NCI anticancer screen, dose series, 48 h
SNB-75 CNS = system: SNB-75 CNS
T-47D breast = system: T-47D breast
SNB-19 CNS = system: SNB-19 CNS
HT29 colon = system: HT29 colon
UACC-62 melanoma = system: UACC-62 melanoma
SK-MEL-28 melanoma = system: SK-MEL-28 melanoma
PC-3 prostate = system: PC-3 prostate
SF-295 CNS = system: SF-295 CNS
MOLT-4 leukemia = system: MOLT-4 leukemia
NCI-H23 lung = system: NCI-H23 lung
MCF7 breast = system: MCF7 breast
OVCAR-8 ovarian = system: OVCAR-8 ovarian
HS 578T breast = system: HS 578T breast
SK-MEL-2 melanoma = system: SK-MEL-2 melanoma
SN12C renal = system: SN12C renal
RPMI-8226 leukemia = system: RPMI-8226 leukemia

Structure (SMILES) | TGI (SNB-75 CNS) [µM] | TGI (T-47D breast) [µM] | TGI (SNB-19 CNS) [µM] | TGI (HT29 colon) [µM] | TGI (UACC-62 melanoma) [µM] | TGI (SK-MEL-28 melanoma) [µM] | TGI (PC-3 prostate) [µM] | TGI (SF-295 CNS) [µM] | TGI (MOLT-4 leukemia) [µM] | TGI (NCI-H23 lung) [µM] | TGI (MCF7 breast) [µM] | TGI (OVCAR-8 ovarian) [µM] | TGI (HS 578T breast) [µM] | TGI (SK-MEL-2 melanoma) [µM] | TGI (SN12C renal) [µM] | TGI (RPMI-8226 leukemia) [µM]
c1ccc(CN[C@]23C4C5CC6C7C5C2C7[C@@](NCc2ccccc2)(C64)N3Cc2ccccc2)cc1 (some centres undefined) | > 100 | > 100 | > 100 | > 100 | > 100 | > 100 | > 100 | > 100 | > 100 | > 100 | > 100 | > 100 | > 100 | > 100 | > 100 | > 100
O=C(CCCCCCCCC(=O)N1C(=O)CC(=O)N(c2ccccc2)C1=S)N1C(=O)CC(=O)N(c2ccccc2)C1=S | > 100 | > 100 | > 100 | > 100 | > 100 | – | > 100 | > 100 | > 100 | > 100 | > 100 | > 100 | > 100 | > 100 | > 100 | > 100
CSCCCS/C1=C/CCCCCCCCCC1 | > 100 | > 100 | > 100 | > 100 | > 100 | > 100 | > 100 | > 100 | > 100 | > 100 | > 100 | – | > 100 | > 100 | > 100 | > 100
COc1ccc(/C=C2\CCS(=O)(=O)c3ccccc3C2=O)cc1OC | 98.4 | > 100 | > 100 | > 100 | 76.6 | > 100 | > 100 | > 100 | > 100 | > 100 | > 100 | 43.5 | > 100 | > 100 | > 100 | > 100
COc1cc2cc(C(=O)N3CC(CCl)c4c3cc(NC(=O)OCc3ccc([N+](=O)[O-])cc3)c3ccccc43)[nH]c2c(OC)c1OC (centres undefined) | 67.3 | > 100 | > 100 | > 100 | > 100 | > 100 | > 100 | > 56.2 | > 100 | > 45.4 | > 100 | > 100 | > 100 | > 100 | > 100 | > 100
CCCCCCCC(CC(=O)NC(CO)C(=O)NC(CO)CC(C)C)OC(=O)CC(CCCCCCC)OC(=O)CC(CCCCCCC)OC1OC(C)C(O)C(OC2OC(C)C(O)C(O)C2OC(C)=O)C1O (centres undefined) | 17.6 | 21 | 20.8 | 13.7 | 18.6 | 21.6 | 15.8 | 21.7 | 10.5 | 22 | 23.8 | 22.4 | 19.1 | – | 16.8 | –
C=CC(OC(C)=O)c1ccc(OC(=O)C(C)C)c(OC)c1 (centres undefined) | 13 | 21.9 | 24.6 | 6.09 | 31.5 | 28.8 | 19.3 | 24.7 | 36.2 | 47.7 | 5.54 | 11.1 | > 80.6 | 15.8 | 15.2 | 4.28
CC(C)CCCC(C)[C@H]1CC[C@H]2[C@@H]3CC[C@H]4C[C@@H](CCC=C(c5cc(Cl)c(O)c(C(=O)OC(C)C)c5)c5cc(Cl)c(O)c(C(=O)OC(C)C)c5)CC[C@]4(C)[C@H]3CC[C@]12C (some centres undefined) | > 50 | > 50 | > 50 | > 50 | > 50 | > 50 | > 50 | > 50 | > 50 | > 50 | > 50 | > 50 | > 50 | > 50 | > 50 | > 50
O=C(CCCCCC(=O)N1CC(CCl)c2ccc([N+](=O)[O-])cc21)N1CC(CCl)c2ccc([N+](=O)[O-])cc21 (centres undefined) | > 100 | > 100 | > 100 | – | > 100 | – | > 100 | > 100 | > 100 | > 100 | > 100 | > 100 | > 100 | > 100 | > 100 | –
C=C1C(=O)O[C@H]2[C@H]3O[C@@H](C[C@@H]12)[C@@]1(C)CC[C@H](O1)[C@H](C)CCC[C@H]3C | 3.15 | 5.53 | 21.7 | 3.04 | 6.32 | 3.1 | 3.01 | 17.4 | – | 3.18 | 3.98 | 2.82 | 12.4 | 4.62 | 6.61 | 2.35
CCCCCCCCCCCCc1ccc(S(=O)(=O)O)cc1.[Zn+2] | > 100 | > 100 | > 100 | > 100 | > 100 | > 100 | > 100 | > 100 | > 100 | > 100 | > 100 | > 100 | > 100 | – | > 100 | > 100
CCOC(=O)C[n+]1cccc(C2(c3cc4ccccc4[nH]3)OCCO2)c1 | > 100 | > 100 | > 100 | > 100 | > 100 | > 100 | > 100 | > 100 | > 100 | > 100 | > 100 | > 100 | > 100 | > 100 | – | > 100
C/C(=C\c1ccccc1)C(=O)NCc1ccc(C(=O)NCCc2ccccc2)cc1 | 19.5 | > 100 | > 100 | 6.81 | > 100 | > 100 | > 100 | 98.8 | > 100 | > 100 | > 100 | 14.7 | > 100 | > 100 | > 100 | > 100
CCOC(=O)C(CC(C)C)NC(=O)CSc1nnc(COc2ccc(Cl)cc2)n1-c1ccccc1 (centres undefined) | 32 | 45.3 | 31.6 | 32.7 | 30.7 | 33.1 | 30.8 | – | > 100 | 29.5 | 35 | – | 60.9 | 30 | 28.9 | 54.5
Brc1ccc2c3c1[C@H]1O[C@H]1c1cccc(c1-3)[C@@H]1O[C@H]21 | 26.3 | 26.8 | 34.3 | 34.7 | 32.5 | 36.5 | 33.4 | 29.3 | > 100 | 38.7 | 73.1 | 37.7 | 59.5 | 41.6 | 33.3 | –
Oc1ccc(Cl)cc1-c1cc(-c2ccccc2)nc(NCN2CCCCC2)n1 | > 100 | > 100 | > 100 | > 100 | > 100 | > 100 | > 100 | – | > 100 | > 100 | > 100 | > 100 | > 100 | > 100 | > 100 | > 100
O=c1oc2ccc([N+](=O)[O-])cc2c(Nc2ccc3c(c2)Sc2ccccc2O3)c1[N+](=O)[O-] | 79 | > 100 | 36.2 | 74.3 | 32.3 | 69.2 | 40.8 | 94.3 | – | 39.1 | 56.7 | 77.3 | 90.9 | 40.4 | 51.2 | 54.2
O=[N+]([O-])c1ccc(C(Nc2ccccc2)P(c2ccccc2)c2ccccc2)cc1 (centres undefined) | > 100 | > 100 | > 100 | > 100 | > 100 | > 100 | > 100 | > 100 | > 100 | > 100 | > 100 | > 100 | > 100 | > 100 | > 100 | –
COc1cc(C2SC(C)C(=O)N2c2ccc(-c3csc(NS(=O)(=O)c4ccc(Cl)c(OC)c4)n3)cc2)ccc1O (centres undefined) | 61 | > 100 | > 100 | > 100 | 55.3 | > 100 | > 100 | > 100 | > 100 | 53.6 | > 100 | > 100 | > 100 | > 100 | 56.7 | –
O=C1Nc2ccccc2Cn2c1cc1oc(-c3ccccc3)cc12 | 64.2 | 92.6 | 66.5 | > 100 | > 100 | > 100 | > 100 | 63.3 | > 100 | > 100 | > 100 | > 100 | 44.3 | > 100 | > 100 | –
COC12CCCN1c1ccn(Cc3ccccc3)c(=O)c1C2=O (centres undefined) | > 100 | > 100 | > 100 | > 100 | > 100 | > 100 | > 100 | > 100 | > 100 | > 100 | > 100 | > 100 | > 100 | > 100 | > 100 | –
COC1CC(OC2C(C)OC(OC3C(C)OC(OC4C(O)CC(O[C@H]5CC[C@@]6(C)C(=CC[C@]7(O)[C@@H]6C[C@@H](OC(C)=O)[C@@]6(C)[C@]7(O)CC[C@@]6(O)C(C)=O)C5)OC4C)CC3OC)CC2OC)OC(C)C1O (some centres undefined) | > 12.5 | > 12.5 | > 12.5 | > 12.5 | > 12.5 | – | > 12.5 | > 12.5 | > 12.5 | > 12.5 | > 12.5 | > 12.5 | > 12.5 | > 12.5 | > 12.5 | > 12.5
O=C1c2ccccc2C(=O)c2sc(Nc3ccccc3C(F)(F)F)nc21 | 35.8 | 44.5 | 55.2 | – | 29.7 | 30.3 | 26.1 | 32.2 | 85.1 | 42.8 | 45.9 | – | 48.2 | 25.2 | > 100 | 74.4
CC(=O)OC(Cc1ccc2ccccc2n1)(C(F)(F)F)C(F)(F)F | 13.5 | 0.912 | 14.7 | 5.43 | 2.93 | 4.03 | 11.7 | 10.9 | 16 | 6.95 | 0.559 | 3.96 | 6.58 | 4.36 | 7.27 | –
COc1cc(C2=NNC(=O)c3ccccc3N2c2nc(-c3cccs3)nc3ccc(Br)cc23)cc(OC)c1OC | > 100 | > 100 | > 100 | 35.9 | > 100 | 32.3 | > 100 | 31.7 | – | 53.4 | 7.28 | > 100 | 44.1 | > 100 | > 100 | 12.9
COc1cc2oc(=O)cc(C)c2cc1O | > 100 | > 100 | > 100 | > 100 | – | > 100 | > 100 | > 100 | > 100 | > 100 | > 100 | > 100 | > 100 | > 100 | > 100 | > 100
COC(=O)CCc1ccc2c(c1)C(=O)CC2 | 99.9 | > 100 | > 100 | > 100 | – | > 100 | > 100 | > 100 | > 100 | > 100 | > 100 | > 100 | > 100 | > 100 | – | > 100
O=c1c2c3c(sc2nc2n1N=C(c1ccc(Cl)cc1)CS2)CCCC3 | > 100 | > 100 | – | > 100 | > 100 | > 100 | > 100 | > 100 | > 100 | > 100 | > 100 | > 100 | > 100 | – | > 100 | > 100
